Experimental data reported in patent US6458764B1, “GRF analogs with increased biological potency” (Theratechnologies Inc., priority 1995, dated 2002).

Tests used:
Type in all cases: in vivo, pigs (Landrace x Yorkshire)
[1] = test system: serum IGF-I; experiment: Repeated S.C. administrations of GRF analogs, serum IGF-I levels in pigs (Example I, Experiments 1-3; radioimmunoassay); details: for serum IGF-I, Day 1 (pretreatment): pretreatment baseline; for increase in IGF-I levels: 20 μg/kg BID SC, P<0.05
Experimental: The objective of these experiments was to assess the potential of the GRF analogs as anabolic agents.
Therefore, in order to investigate the anabolic potency of the fatty acid-GRF analogs, their ability to increase IGF-I levels following repeated S.C. administrations in pig was evaluated.
26 Landrace x Yorkshire castrated male pigs (40-45 kg BW) were randomly distributed into 4 experimental groups:
Each animal was injected BID (twice a day) subcutaneously for 4 consecutive days. One blood sample was collected each morning prior to the first injection of the day, and the day after the last injection, for IGF-I measurement.
40 Landrace x Yorkshire castrated male pigs (40-45 kg BW) were randomly distributed into 5 experimental groups:
(§1) Each animal was injected BID (twice a day) subcutaneously for 5 consecutive days. One blood sample was collected each morning prior to the first injection of the day, and the day after the last injection, for IGF-I measurement.
48 Landrace x Yorkshire castrated male pigs (40-45 kg BW) were randomly distributed into 6 experimental groups:
as §1, with “The selected doses were 30 μg/kg for hGRF(1-44)NH2 analogs and 20 μg/kg for hGRF(1-29)NH2 analogs, which give identical doses on a molar basis. Each” for “Each”, “measurements.” for “measurement.”
IGF-I levels were measured in pig serum by double antibody radioimmunoassay after formic acid-acetone extraction, as previously described (Abribat T. et al., 1993, J. Endocrinol., 39:583-589). The extraction prior to radioimmunoassay is a necessary step to remove endogenous IGF-binding proteins.
In both experiments, the IGF-I data were analyzed by a two way repeated measure analysis of variance, with day and treatment (GRF analog) as sources of variation. Multiple comparison procedures were there run (Student-Newman Keuls method). A P<0.05 was considered as statistically significant.

[2] = test system: serum IGF-I; experiment: Comparative effects of GRF analogs on IGF-I levels in pigs (Example II, D-IGF-I, FIG. 1); details: 20 μg/kg 2×/day S.C., days 1 to 5, n=8 pigs per group
Experimental: This was a 5-day treatment, twice a day S.C. administration of one single dose of each test article vs saline. This experiment was conducted to compare the efficacy of (Aminohexanoyl)0 hGRF (1-29) NH2, (Hexylformiate)0 hGRF (1-29) NH2, (Hexenoyl trans-2)0 hGRF (1-29) NH2, (Hexenoyl trans-3)0 hGRF (1-29) NH2 and (Muconoyl)0 hGRF (1-29) NH2 to that of(Hexanoyl)0 hGRF (1-29) NH2.
ADMINISTRATION: Two daily subcutaneous injections.
(§2) TEST SYSTEM: Landrace x Yorkshire pigs.
ANIMAL DESCRIPTION: Fifty six (56) growing barrows pigs weighing 35 kg at the time of purchase.
DESIGN: Fifty six (56) pigs were randomly distributed into 7 experimental groups (n=8 pigs per group). Each group received two daily S.C. administration of the following treatments (volume: 3 ml, S.C. injection).
Treatments were administered from day 1 to 5. Immediately before the injections, one blood sample were collected from each animal, and additional blood samples were collected on day 6.
Blood samples were allowed to clot, serum was harvested by centrifugation and submitted to IGF-I assays.
Results are shown in FIG. 1 as D-IGF-I, which is defined as the increase in IGF-I levels from day 1 (pretreatment levels) to day 6 (after 5 days of GRFs administrations).

[3] = test system: pig serum GH; experiment: Intravenous GH-releasing potency in pigs (Example III); details: for effect on GH area under the curve (0 to 300 minutes following injection): I.V., FIG. 3
Experimental: This experiment was conducted to test the I.V. acute GH-releasing potency of (Hexenoyl trans-3)0 hGRF (1-29) NH2, a GRF analog, in a model physiologically close to human and to compare it to that of hGRF(1-29)NH2.
(Hexenoyl trans-3)0 hGRF (1-29) NH2 is a combination of the natural hGRF(1-29)NH2 and natural fatty acids. This study was a multidose, single I.V. injection study.
ADMINISTRATION: intravenous acute injection.
as §2
DESIGN: […] pigs (4 spare animals) were cannulated (a catheter surgically implanted in one jugular vein) within on week, before the study. On days 1 and 7, cannulated animals were randomly distributed into 7 groups (n=4 pigs per group).
Blood samples for pGH assay were collected every 20 min from 1 hour before to 5 hours after GRF injections, with additional samplings 10 and 30 min after injection (n=21 samples). Blood samples are allowed to clot at +4° C. Serum will be harvested by centrifugation, stored at −20° C. and submitted to pGH assays.

[4] = test system: pig serum GH; experiment: Subcutaneous GH-releasing potency in pigs (Example IV); details: for effect on GH area under the curve, 0 to 420 minutes following injection: S.C., FIG. 5
Experimental: This experiment was conducted to test the S.C. acute GH-releasing potency of (Hexenoyl trans-3)0 hGRF (1-29) NH2, a GRF analog, in a model physiologically close to human and to compare it to that of hGRF(1-29)NH2.
ADMINISTRATION: Subcutaneous acute injection.
as §2
DESIGN: Thirty six (36) pigs (4 spare animals) were cannulated (a catheter surgically implanted in one jugular vein) within one week, before the study. On days 1 and 7, cannulated animals were randomly distributed into 8 groups (n=4 pigs per group).
Blood samples for pGH assay were collected every 20 min from 1 hour before to 7 hours after GRF injections, (n=25 samples). Blood samples were allowed to clot at +4CC. Serum is harvested by centrifugation, stored at −20° C. and submitted to pGH assays.

[5] = Experiment 1, 20 μg/kg BID SC × 4 days, mean of 6 to 7
[6] = Experiment 2, 10 μg/kg BID SC × 5 days, mean of 8
[7] = Experiment 2, 20 μg/kg BID SC × 5 days, mean of 8
[8] = Experiment 2, 40 μg/kg BID SC × 5 days, mean of 8
[9] = Experiment 3, 20 μg/kg BID SC × 5 days, mean of 8
[10] = one intravenous injection, 4 μg/kg, FIG. 2

With “(Hexanoyl)0 hGRF (1-29) NH2 (YADAIFTNSYRKVLGQLSARKLLQDIMSR; HELM PEPTIDE1{[CCCCCC(=O)[*:2]].Y.A.D.A.I.F.T.N.S.Y.R.K.V.L.G.Q.L.S.A.R.K.L.L.Q.D.I.M.S.R.[am]}$$$$V2.0; SMILES CCCCCC(=O)N[C@@H](Cc1ccc(O)cc1)C(=O)N[C@@H](C)C(=O)N[C@@H](CC(=O)O)C(=O)N[C@@H](C)C(=O)N[C@H](C(=O)N[C@@H](Cc1ccccc1)C(=O)N[C@H](C(=O)N[C@@H](CC(N)=O)C(=O)N[C@@H](CO)C(=O)N[C@@H](Cc1ccc(O)cc1)C(=O)N[C@@H](CCCNC(=N)N)C(=O)N[C@@H](CCCCN)C(=O)N[C@H](C(=O)N[C@@H](CC(C)C)C(=O)NCC(=O)N[C@@H](CCC(N)=O)C(=O)N[C@@H](CC(C)C)C(=O)N[C@@H](CO)C(=O)N[C@@H](C)C(=O)N[C@@H](CCCNC(=N)N)C(=O)N[C@@H](CCCCN)C(=O)N[C@@H](CC(C)C)C(=O)N[C@@H](CC(C)C)C(=O)N[C@@H](CCC(N)=O)C(=O)N[C@@H](CC(=O)O)C(=O)N[C@H](C(=O)N[C@@H](CCSC)C(=O)N[C@@H](CO)C(=O)N[C@@H](CCCNC(=N)N)C(N)=O)[C@@H](C)CC)C(C)C)[C@@H](C)O)[C@@H](C)CC; UniProt P01286 32-60, looked up, fragment) [[hexanoyl^0] hGRF(1-29)NH2]” the “serum IGF-I, Day 2” value [1, 5] was 281 ng/mL, the “serum IGF-I, Day 3” value [1, 5] was 299 ng/mL and the “serum IGF-I, Day 4” value [1, 5] was 319 ng/mL. The “serum IGF-I, Day 5” value [1, 5] was 342 ng/mL, the “serum IGF-I, Day 1 (pretreatment)” value [1, 5] was 248 ng/mL and the “increase in IGF-I levels” value ([1]; Experiment 1, day 4) was 29%. For the same substance, the “increase in IGF-I levels” value ([1]; Experiment 1, day 5) was 38%, the “serum IGF-I, Day 2” value [1, 6] was 327 ng/mL and the “serum IGF-I, Day 3” value [1, 6] was 337 ng/mL. For the same substance, the “serum IGF-I, Day 4” value [1, 6] was 338 ng/mL, the “serum IGF-I, Day 5” value [1, 6] was 366 ng/mL and the “serum IGF-I, Day 6” value [1, 6] was 350 ng/mL. For the same substance, the “serum IGF-I, Day 1 (pretreatment)” value [1, 6] was 303 ng/mL, the “serum IGF-I, Day 2” value [1, 7] was 341 ng/mL and the “serum IGF-I, Day 3” value [1, 7] was 368 ng/mL. The “serum IGF-I, Day 4” value [1, 7] was 362 ng/mL, the “serum IGF-I, Day 5” value [1, 7] was 362 ng/mL and the “serum IGF-I, Day 6” value [1, 7] was 368 ng/mL. For the same substance, the “serum IGF-I, Day 1 (pretreatment)” value [1, 7] was 302 ng/mL, the “serum IGF-I, Day 2” value [1, 8] was 275 ng/mL and the “serum IGF-I, Day 3” value [1, 8] was 319 ng/mL. For the same substance, the “serum IGF-I, Day 4” value [1, 8] was 354 ng/mL, the “serum IGF-I, Day 5” value [1, 8] was 350 ng/mL and the “serum IGF-I, Day 6” value [1, 8] was 374 ng/mL. For the same substance, the “serum IGF-I, Day 1 (pretreatment)” value [1, 8] was 252 ng/mL, the “serum IGF-I, Day 2” value [1, 9] was 292 ng/mL and the “serum IGF-I, Day 3” value [1, 9] was 292 ng/mL. For the same substance, the “serum IGF-I, Day 4” value [1, 9] was 315 ng/mL, the “serum IGF-I, Day 5” value [1, 9] was 347 ng/mL and the “serum IGF-I, Day 6” value [1, 9] was 356 ng/mL. The “serum IGF-I, Day 1 (pretreatment)” value [1, 9] was 272 ng/mL, the “increase in IGF-I levels” value ([1]; Experiment 3, day 5) was 28% and the “increase in IGF-I levels” value ([1]; Experiment 3, day 6) was 31%. For the same substance, the “D-IGF-I: increase in IGF-I levels from day 1 (pretreatment) to day 6” value [2] was “significantly increased IGF-I levels”.

For “(Hexenoyl trans-3)0 hGRF (1-29) NH2 (YADAIFTNSYRKVLGQLSARKLLQDIMSR; HELM PEPTIDE1{[CC/C=C/CC(=O)[*:2]].Y.A.D.A.I.F.T.N.S.Y.R.K.V.L.G.Q.L.S.A.R.K.L.L.Q.D.I.M.S.R.[am]}$$$$V2.0; SMILES CC/C=C/CC(=O)N[C@@H](Cc1ccc(O)cc1)C(=O)N[C@@H](C)C(=O)N[C@@H](CC(=O)O)C(=O)N[C@@H](C)C(=O)N[C@H](C(=O)N[C@@H](Cc1ccccc1)C(=O)N[C@H](C(=O)N[C@@H](CC(N)=O)C(=O)N[C@@H](CO)C(=O)N[C@@H](Cc1ccc(O)cc1)C(=O)N[C@@H](CCCNC(=N)N)C(=O)N[C@@H](CCCCN)C(=O)N[C@H](C(=O)N[C@@H](CC(C)C)C(=O)NCC(=O)N[C@@H](CCC(N)=O)C(=O)N[C@@H](CC(C)C)C(=O)N[C@@H](CO)C(=O)N[C@@H](C)C(=O)N[C@@H](CCCNC(=N)N)C(=O)N[C@@H](CCCCN)C(=O)N[C@@H](CC(C)C)C(=O)N[C@@H](CC(C)C)C(=O)N[C@@H](CCC(N)=O)C(=O)N[C@@H](CC(=O)O)C(=O)N[C@H](C(=O)N[C@@H](CCSC)C(=O)N[C@@H](CO)C(=O)N[C@@H](CCCNC(=N)N)C(N)=O)[C@@H](C)CC)C(C)C)[C@@H](C)O)[C@@H](C)CC; UniProt P01286 32-60, looked up, fragment) [hexenoyl trans3-hGRF(1-29)NH2]”, the “D-IGF-I: increase in IGF-I levels from day 1 (pretreatment) to day 6” value [2] was “significantly increased IGF-I levels”, the “effect on GH area under the curve (0 to 300 minutes following injection)” value (shortened to “effect … (0 to 300 minutes following injection)”) ([3]; 0.25 μg/kg) was “significant response” and the “effect … (0 to 300 minutes following injection)” value ([3]; 1 μg/kg) was “significant response”. For the same substance, the “effect … (0 to 300 minutes following injection)” value ([3]; 4 μg/kg) was “significant response”, the “GH response in the first 60 minutes” value [3, 10] was “moderate” and the “duration of GH release following injection” value [3, 10] was “approximately 260 minutes”. The “effect on GH area under the curve, 0 to 420 minutes following injection” value ([4]; 5 μg/kg) was “significant increases of the GH AUC”, the “effect on GH area under the curve, 0 to 420 minutes following injection” value ([4]; 20 μg/kg) was “significant increases of the GH AUC” and the “duration of GH response following administration” value ([4]; one subcutaneous injection, 5 μg/kg, FIG. 4) was 240 min.
